Reference: the supplement of paper PMC10307832

Legend:
Test in all cases: relative viability (nuclei count vs DMSO), 5 days (fraction); higher = more cells survive
[1] = compound: Nc1ccccc1NC(=O)c1ccc(CNC(=O)OCc2cccnc2)cc1 [Entinostat] + CC(=O)c1c(C)c2cnc(Nc3ccc(N4CCNCC4)cn3)nc2n(C2CCCC2)c1=O [Palbociclib] (partner 0.5 µM)
Outline: (§1)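 Lung cancer cell lines in 1536-well plates were dosed by pin tool the day after seeding, either with one drug alone or with a fixed anchor-drug dose plus five library-drug doses (not always all listed) in √10 steps. After 5 days, cells were fixed and their nuclei stained in one step (final 0.05% Triton X-100, 1% formaldehyde, 1 ug/ml Hoechst), then counted on 4× images. Relative viability is the nuclei count in treated wells divided by that in vehicle wells. Values are medians of duplicate plates.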

[2] = compound: CN1CCC(CNc2ccc3ncc(-c4cccc(OC(F)(F)F)c4)n3n2)CC1 [SGI-1776] + CC1(C)CCC(c2ccc(Cl)cc2)=C(CN2CCN(c3ccc(C(=O)NS(=O)(=O)c4ccc(N[C@H](CCN5CCOCC5)CSc5ccccc5)c(S(=O)(=O)C(F)(F)F)c4)cc3)CC2)C1 [Navitoclax] (partner 0.5 µM)
Outline: as §1

[3] = compound: Nc1ccccc1NC(=O)c1ccc(CNC(=O)OCc2cccnc2)cc1 [Entinostat] + CS(=O)(=O)CCNCc1ccc(-c2ccc3ncnc(Nc4ccc(OCc5cccc(F)c5)c(Cl)c4)c3c2)o1 [Lapatinib] (partner 2 µM)
Outline: as §1

[4] = compound: Nc1ccccc1NC(=O)c1ccc(CNC(=O)OCc2cccnc2)cc1 [Entinostat] + CCNC(=O)c1noc(-c2cc(C(C)C)c(O)cc2O)c1-c1ccc(CN2CCOCC2)cc1 [Luminespib] (partner 0.01 µM)
Outline: as §1

Cell Line	relative viability ([1]; first compound 0.02 µM)	relative viability ([1]; first compound 0.06325 µM)	relative viability ([1]; first compound 0.2 µM)	relative viability ([1]; first compound 0.6325 µM)	relative viability ([1]; first compound 2 µM)	relative viability ([2]; first compound 0.08 µM)	relative viability ([2]; first compound 0.8 µM)	relative viability ([2]; first compound 2.53 µM)	relative viability ([2]; first compound 8 µM)	relative viability ([3]; first compound 0.02 µM)	relative viability ([3]; first compound 0.06325 µM)	relative viability ([3]; first compound 0.2 µM)	relative viability ([3]; first compound 0.6325 µM)	relative viability ([3]; first compound 2 µM)	relative viability ([4]; first compound 0.02 µM)	relative viability ([4]; first compound 0.06325 µM)	relative viability ([4]; first compound 0.2 µM)	relative viability ([4]; first compound 0.6325 µM)	relative viability ([4]; first compound 2 µM)
201T	0.384	0.376	0.426	0.378	0.373	1.19	1.24	1.23	1.17	1.02	1.03	0.959	0.937	0.665	1.03	1.04	0.995	0.925	0.747
A549						1.24	1.29	1.27	0.77	1	0.956	0.92	0.755	0.481					
A-427	0.555	0.537	0.463	0.401	0.368	1.03	0.957	0.953	1.03	1.16	1.08	1.07	0.983	0.83	1.01	1.03	0.83	0.651	0.582
ABC-1	0.591	0.788	0.61	0.658	0.41					1.43	1.38	1.56	1.38	1.21	0.661	0.49	0.609	0.555	0.358
BEN	0.543	0.466	0.457	0.454	0.4	0.0663	0.049	0.0583	0.0494	0.894	0.743	0.562	0.373	0.219	0.217	0.32	0.263	0.472	0.349
CAL-12T	0.516	0.602	0.637	0.384	0.266	1.3	1.1	1.29	1.09	0.606	0.762	0.55	0.501	0.466	0.502	0.402	0.459	0.461	0.364
COR-L23	0.31	0.249	0.253	0.139	0.0938	1.13	1.03	1.11	0.731	0.967	0.995	0.905	0.579	0.176	0.697	0.535	0.49	0.296	0.108
COR-L 105	0.376	0.406	0.38	0.43	0.355	0.799	0.86	1	0.546	0.362	0.357	0.358	0.328	0.34	0.803	0.749	0.72	0.561	0.345
Calu-6						0.922	0.909	0.856	0.626	1.09	0.967	0.963	0.698	0.498					
ChaGo-K-1	0.976	0.931	0.989	0.852	0.75	0.849	1.23	0.624	0.716						0.765	0.523	0.487	0.596	0.503
EBC-1						0.458	0.292	0.289	0.144	0.213	0.211	0.208	0.181	0.184					
EKVX	0.467	0.434	0.343	0.326	0.242	1.03	0.907	0.999	0.888	0.254	0.219	0.209	0.161	0.153	0.986	0.913	0.794	0.801	0.427
EMC-BAC-2	0.532	0.468	0.443	0.388	0.294	1.23	1.22	1.16	1.1	0.873	0.956	0.901	0.682	0.499	1.15	1.15	1.02	0.768	0.529
EPLC-272H	0.406	0.334	0.364	0.282	0.215	1.15	1.15	1.25	0.969	0.951	0.831	1.27	0.365	0.334	0.209	0.187	0.31	0.262	0.264
H3255	0.339	0.345	0.348	0.301	0.27	0.525	0.46	0.543	0.193	0.21	0.309	0.161	0.145	0.156	1.02	0.954	0.652	0.613	0.321
HARA	0.301	0.298	0.258	0.272	0.266	1.15	1.17	1.16	1.16	0.792	0.872	0.786	0.671	0.374	0.534	0.732	0.752	0.584	0.201
HCC-15	0.734	0.674	0.572	0.454	0.273	0.707	0.728	0.599	0.475	0.866	0.779	0.726	0.345	0.288	0.352	0.301	0.261	0.359	0.257
HCC-44	1.01	0.833	0.903	0.84	0.826	0.935	0.909	1.08	0.928	1	0.88	0.7	0.258	0.311	1.04	0.889	0.741	0.505	0.324
HCC-78	0.523	0.462	0.491	0.468	0.531	0.816	0.766	0.812	0.66	0.829	0.702	0.33	0.169	0.169					
